Where no end group is shown, it is not given here.
Legend:
[1] = system: Agrp-cre::hM3Dq-mCherry mice; test: DREADD (hM3Dq/CNO)-stimulated feeding; type: in vivo, mouse
Description: For surgery, mice (8 to 12 weeks) were anesthetized with isoflurane (1 L/min O2 with 2% isoflurane). Following surgery, all mice received 0.03 mg/kg buprenorphine (Buprenex, Reckitt Benckiser, Slough, UK) and were allowed a minimum of 1 week to recover before treatment started. DIO mice received subcutaneous implants of an Alzet 2002 osmotic minipump (Durect, Cupertino, CA). All of the DIO mice experienced a small reduction in body weight following implantation of the minipump. For experiments using designer receptors exclusively activated by designer drugs (DREADDs), AgRP-cre mice received bilateral injections of AAV2-hSyn-DIO-hM3Dq-mCherry (UNC Vector Core, Chapel Hill, NC) ([35]) into the arcuate nucleus (3 × 23 nL per side), using the following coordinates relative to Bregma, according to Paxinos and Franklin ([36]): anterior, −1.5 mm; lateral, ±0.30 mm; and ventral, −6.2 mm. Subsequently, the DREADDs were activated by IP injection of the designer drug, clozapine N-oxide (CNO; Sigma-Aldrich, St. Louis, MO) at 1 mg/kg.

mice [2] = test: Normal nighttime feeding after SC injection; type: in vivo, mouse; details: serial dilution, food intake after 2 hours
Description: (§1) For acute experiments, mice were acclimated to handling for 2 weeks and housed singly with free access to food at least 4 days before experiments. Nighttime injections of NNC0165-1273 were given subcutaneously (SC) 30 minutes before start of “dark phase,” and food intake was measured 1, 2, 4, and 14 hours later. Daytime feeding experiments commenced 4 hours into the “light phase” [Zeitgeber time (ZT) 4]; injections of ghrelin (2 mg/kg, IP) and NNC0165-1273/PYY3-36 (various doses, SC) were given concomitantly, and food intake measured at 1, 2, 4, and 24 hours later.

NPY/AgRP neurons = test: cFos immunohistochemistry in arcuate NPY/AgRP neurons; type: in vivo, mouse
Description: Mice were transcardially perfused with chilled 0.9% NaCl followed by 4% paraformaldehyde in 0.1M phosphate buffer (Sigma-Aldrich). Whole brains were postfixed overnight and then dehydrated in 30% sucrose solution. Brains were flash frozen on dry ice, and then 30 µm sections were collected using a freezing sledge microtome and transferred to 0.1M phosphate buffer.
For chromogenic visualization of cFos, free-floating sections were incubated sequentially in rabbit anit-cFos primary [1:1000; SC-52; Santa Cruz, Dallas, TX ([37])], biotinylated goat anit-rabbit secondary [1:500; BA-1000; Vector Laboratories, Cambridge, UK ([38])], and streptavidin-biotin-peroxidase complex (1:500; RPN1051; GE Healthcare, Chicago, IL). This was combined with fluorescence staining for GFP or mCherry reporters; this required coincubation of sections with chicken anit-GFP [1:1000; 13970; Abcam, Cambridge, UK ([39])] followed by donkey anit-chicken^ALEXA 488 [1:1000; 703-545-155, Jackson ImmunoResearch, West Grove, PA ([40])], or with rabbit anti-DsRed [1:1000, 632396, Clontech, CA ([41])] followed by donkey […]^ALEXA 594 [1:1000; 705-585-147; Jackson ImmunoResearch, ([42])]. Sections were mounted on slides before imaging on an Olympus BX51 upright microscope. Images were processed and analyzed using open-source FIJI software.

[3] = cited from earlier work
Source text: (§2) PYY3-36 and ghrelin were purchased from Bachem (Bubendorf, Switzerland). NNC0165-1273 was identified from a series of modified PYY peptides and synthesized with the aim of increased selectivity for Y2 receptors vs the other Y receptors [peptide no. 29 in Østergaard et al. ([9])].

human Y1 receptor = details: ref [9] Østergaard et al., read-out: binding inhibitory constant (Ki), Y1 receptor; cited from earlier work
Source text: as §2

human Y2 receptor = details: same binding assays for both peptides, ref [9] Østergaard et al., read-out: binding inhibitory constant (Ki), Y2 receptor; cited from earlier work
Source text: as §2

human Y4 receptor = details: ref [9] Østergaard et al., read-out: binding inhibitory constant (Ki), Y4 receptor; cited from earlier work
Source text: as §2

human Y5 receptor = details: ref [9] Østergaard et al., read-out: binding inhibitory constant (Ki), Y5 receptor; cited from earlier work
Source text: as §2

mice [4] = test: Ghrelin-induced daytime feeding; type: in vivo, mouse; details: 2 mg/kg IP, light phase, fed mice
Description: as §1

[5] = system: arcuate NPY/AgRP neurons (Npy-hrGFP); test: Current clamp patch electrophysiology in brain slices; type: cell-based, mouse; details: 50 nM bath application; results not shown
Description: Npy-hrGFP mice were euthanized by decapitation, and the brains rapidly removed and sliced on a vibratome (Campden Instruments, Loughborough, UK) in ice-cold oxygenated incubation artificial cerebrospinal fluid (aCSF) containing (mM): 95 NaCl, 1.8 KCl, 1.2 KH2PO4, 7 MgSO4, 26 NaHCO3, 0.5 CaCl2, 15 glucose, and 50 sucrose. Slices were perfused with room temperature recording aCSF containing (mM): 127 NaCl, 1.8 KCl, 1.2 KH2PO4, 1.3 MgSO4, 26 NaHCO3, 2.4 CaCl2, and 5 glucose. Npy-hrGFP neurons were visualized in 250-µm slices using an Olympus BX51 with inbuilt infrared video-enhanced differential interference contrast optics and GFP fluorescence optics. Neurons were patched using 7 to 10 MΩ pipettes containing (mM): 130 K-gluconate, 10 KCl, 2 MgCl2, 10 HEPES, 0.5 EGTA, 2 K2ATP, and 0.5 NaGTP. Data were recorded on an Axoclamp 2A amplifier in bridge mode (Molecular Devices, San Jose, CA) and a CED 1401 A/D data acquisition interface (CED, Cambridge, UK) to give current clamp data at 30 kHz sampling frequency. NNC0165-1273 (Novo Nordisk, Maaloev, Denmark) was diluted in aCSF to a concentration of 50 nM and applied to perfusion chamber through a gravity-driven system. Effects were sampled with no current manipulations. All applications were timed for 3 to 5 minutes and perfusion flow was maintained at standard 1 to 2 mL/min^−1.

In the case of `C[N+]1([O-])CCN(C2=Nc3cc(Cl)ccc3Nc3ccccc32)CC1` [CNO, clozapine N-oxide], the “food intake in Agrp-cre::hM3Dq-mCherry mice” value ([1]; single IP injection 1 mg/kg, vs saline) is reported as “substantial increase in food intake” and the “food intake in wild-type mice” value ([1]; wild-type mice, results not shown) is reported as “do not respond”.
In the case of “PYY3-36: truncated major circulating form of gut hormone peptide YY; purchased from Bachem”, the “threshold dose needed to inhibit nighttime feeding” value (mice [2]) is given as 0.04 µmol/kg, the “ghrelin-induced activation (cFos) of NPY/Agrp neurons” value (NPY/AgRP neurons; pretreatment before ghrelin 2 mg/kg, perfused 90 minutes after ghrelin, Npy-hrGFP mice) is given as “blocked” and the “half-life in pig plasma” value [3] is given as 3.33 h. The Ki (human Y1 receptor) was 40 nM, the Ki (human Y2 receptor) was 0.4 nM and the Ki (human Y4 receptor) was 13 nM. For the same compound, the Ki (human Y5 receptor) was 3.2 nM.
In the case of “ghrelin: orexigenic peptide purchased from Bachem, used to induce feeding and activate NPY/AgRP neurons (GSSFLSPEHQRVQQRKESKKPPAKLQPR; ends and bridges not checked; UniProt Q9UBU3 24-51, looked up)”, the “food intake after ghrelin alone” value (mice [4]) is reported as “substantial increase in food intake”, the “cFos expression in the arcuate nucleus, notably NPY-hrGFP neurons” value (NPY/AgRP neurons; ghrelin 2 mg/kg, 90 minutes after injection) is reported as “substantial increase” and the “resting membrane potential of NPY/AgRP neurons” value [5] is reported as “increase in the resting membrane potential”.

Reference: article PMC6806261, “Modified Peptide YY Molecule Attenuates the Activity of NPY/AgRP Neurons and Reduces Food Intake in Male Mice” (Endocrinology, 2019)
